According to patent US9290454B2, “Substituted isoquinolines as CRTH2 receptor modulators” (Merck Sharp & Dohme Corp., priority 2012, dated 2016):

Target: hCRTH2 (Homo sapiens (Human), UniProt Q9Y5Y4)
Assay: Radioligand binding assay ([3H]-PGD2, SPA or filtration)
Settings: [3H]-PGD2 competition, membrane protein from HEK-hCRTH2 cell line, room temperature, SPA or filtration format
Protocol: Radioligand binding was performed using filtration or scintillation proximity assay (SPA) technology. SPA assays were done at room temperature in 10 mM HEPES pH 7.4, 1 mM EDTA containing 2 mM MnCl2 and 16 nM [^3H]-PGD2 (PerkinElmer, Waltham, Mass.) (164 Ci mmol-1), in a final volume of 0.05 mL. Competing ligands were diluted in dimethylsulfoxide and added using very low volumes (500 nL). The reaction was initiated by the addition of a mixture of 3.52 ug of membrane protein prepared from a human embryonic kidney (HEK)-hCRTH2 cell line adhered to 140 ug of wheatgerm agglutinin SPA beads (PerkinElmer). Total and non-specific binding were determined in the absence and the presence of a CRTH2 antagonist, respectively. The reaction was routinely conducted for 60 minutes at room temperature followed by centrifugation for 5 minutes at 1000 RPM. The radioactivity was measured with a TopCountNXT (PerkinElmer). Filtration binding assays were done in a similar way with minor differences. The assay volume was 0.20 mL and competing ligands in dimethylsulfoxide were added in 2 uL. [^3H]-PGD2 was used at 0.6 nM, and reactions were initiated by the addition of 10 ug of membrane protein. Reactions were terminated by filtration through GF/C filter plates (PerkinElmer) presoaked in 10 mM HEPES. After washing with buffer, plates were dried in a 50° C. oven for 1 h, scintillation cocktail was added and radioactivity was measured. Results determined using the SPA-based assay were similar to those from the filtration binding assay. Table A (below) sets forth the results of the binding assay for representative compounds of the invention.

hCRTH2, sequence (Q9Y5Y4 whole entry): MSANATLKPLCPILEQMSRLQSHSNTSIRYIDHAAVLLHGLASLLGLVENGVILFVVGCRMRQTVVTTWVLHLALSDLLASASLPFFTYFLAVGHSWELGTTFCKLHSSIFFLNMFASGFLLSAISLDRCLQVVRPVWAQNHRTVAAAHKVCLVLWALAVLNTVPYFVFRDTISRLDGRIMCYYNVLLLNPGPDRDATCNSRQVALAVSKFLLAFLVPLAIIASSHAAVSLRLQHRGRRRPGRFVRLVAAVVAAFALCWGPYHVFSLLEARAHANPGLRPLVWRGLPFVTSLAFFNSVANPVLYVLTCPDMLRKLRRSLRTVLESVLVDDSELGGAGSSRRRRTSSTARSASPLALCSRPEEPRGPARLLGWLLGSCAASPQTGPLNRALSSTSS

SMILES	Ki [nM]
COc1ccccc1-n1c(CCCCC(=O)O)cc2cc(C(=O)N[C@H](C)c3ccc(F)cc3)ccc2c1=O (single isomer, unassigned) [Example 3.7]	18.7
C[C@@H]1CN(c2ccc(F)cc2)CCN1C(=O)c1ccc2c(=O)n(-c3ccc(F)cc3)c(CCCCC(=O)O)cc2c1 [Example 4.1, (R)-5-(2-(4-fluorophenyl)-6-(4-(4-fluorophenyl)-2-methylpiperazine-1-carbonyl)-1-oxo-1,2-dihydroisoquinolin-3-yl)pentanoic acid]	22.5
O=C(O)CCCCc1cc2cc(C(=O)N[C@@H]3CCCc4ccccc43)ccc2c(=O)n1-c1ccc(F)cc1 [Example 3.1, (R)-5-(2-(4-fluorophenyl)-1-oxo-6-((1,2,3,4-tetrahydronaphthalen-1-yl)carbamoyl)-1,2-dihydroisoquinolin-3-yl)pentanoic acid]	5.79
C[C@@H]1CN(c2ccccc2)CCN1C(=O)c1ccc2c(=O)n(-c3ccc(F)cc3)c(CCCCC(=O)O)cc2c1 [Example 4.2, (R)-5-(2-(4-fluorophenyl)-6-(2-methyl-4-phenylpiperazine-1-carbonyl)-1-oxo-1,2-dihydro-isoquinolin-3-yl)pentanoic acid]	13.6
C[C@@H](NC(=O)c1ccc2c(=O)n(-c3ccc(F)cc3)c(CC(=O)O)cc2c1)c1ccc(F)cc1 [Example 2.1, (R)-2-(2-(4-fluorophenyl)-6-((1-(4-fluorophenyl)ethyl)carbamoyl)-1-oxo-1,2-dihydroisoquinolin-3-yl)acetic acid]	4920
C[C@@H](NC(=O)c1ccc2c(=O)n(Cc3ccc(F)cc3)c(CCCCC(=O)O)cc2c1)c1ccc(F)cc1 [Example 1.2, (R)-5-(2-(4-fluorobenzyl)-6-((1-(4-fluorophenyl)ethyl)carbamoyl)-1-oxo-1,2-dihydroisoquinolin-3-yl)pentanoic acid]	49
C[C@@H](NC(=O)c1ccc2c(=O)n(-c3ccc(F)cc3)c(CCCCC(=O)O)cc2c1)c1ccc(F)cc1 [Example 4.4, (R)-5-(2-(4-fluorophenyl)-6-((1-(4-fluorophenyl)ethyl)carbamoyl)-1-oxo-1,2-dihydroisoquinolin-3-yl)pentanoic acid]	5.16
O=C(O)CCCCc1cc2cc(C(=O)NC3CC(=O)Nc4ccccc43)ccc2c(=O)n1-c1ccc(F)cc1 (stereo not shown) [Example 4.3, 5-(2-(4-fluorophenyl)-1-oxo-6-((2-oxo-1,2,3,4-tetrahydroquinolin-4-yl)carbamoyl)-1,2-dihydroisoquinolin-3-yl)pentanoic acid]	20.7
O=C(O)CCCCc1cc2cc(C(=O)N[C@@H]3CCCc4cc(F)ccc43)ccc2c(=O)n1-c1ccc(F)cc1 [Example 3.2, (R)-5-(6-((6-fluoro-1,2,3,4-tetrahydronaphthalen-1-yl)carbamoyl)-2-(4-fluorophenyl)-1-oxo-1,2-dihydroisoquinolin-3-yl) pentanoic acid]	6.5
O=C(O)CCCCc1cc2cc(-c3cc(Cc4ccc(F)cc4)on3)ccc2c(=O)n1-c1ccc(F)cc1 [Example 5.1, 5-(6-(5-(4-fluorobenzyl)isoxazol-3-yl)-2-(4-fluorophenyl)-1-oxo-1,2-dihydroisoquinolin-3-yl)pentanoic acid]	10.2
C[C@@H](NC(=O)c1ccc2c(=O)n(Cc3ccccc3)c(CCCCC(=O)O)cc2c1)c1ccc(F)cc1 [Example 1.1, (R)-5-(2-benzyl-6-((1-(4-fluorophenyl)ethyl)carbamoyl)-1-oxo-1,2-dihydroisoquinolin-3-yl)pentanoic acid]	37.7
COc1cccc(-n2c(CCCCC(=O)O)cc3cc(C(=O)N[C@H](C)c4ccc(F)cc4)ccc3c2=O)c1 [Example 3.5, (R)-5-(6-((1-(4-fluorophenyl)ethyl)carbamoyl)-2-(3-methoxyphenyl)-1-oxo-1,2-dihydroisoquinolin-3-yl)pentanoic acid]	13.1
COc1ccc(-n2c(CCCCC(=O)O)cc3cc(C(=O)N[C@H](C)c4ccc(F)cc4)ccc3c2=O)cc1 [Example 3.3, (R)-5-(6-((1-(4-fluorophenyl)ethyl)carbamoyl)-2-(4-methoxyphenyl)-1-oxo-1,2-dihydroisoquinolin-3-yl)pentanoic acid]	8.2
C[C@@H](NC(=O)c1ccc2c(=O)n(-c3ccc(C#N)cc3)c(CCCCC(=O)O)cc2c1)c1ccc(F)cc1 [Example 3.4, (R)-5-(2-(4-cyanophenyl)-6-((1-(4-fluorophenyl)ethyl)carbamoyl)-1-oxo-1,2-dihydroisoquinolin-3-yl)pentanoic acid]	8.84
COc1ccccc1-n1c(CCCCC(=O)O)cc2cc(C(=O)N[C@H](C)c3ccc(F)cc3)ccc2c1=O (single isomer, unassigned) [Example 3.6]	363

The next lines start with the values.

Ki [nM]	SMILES
17.3	O=C(CCCCc1cc2cc(-c3noc(Cc4ccc(F)cc4)n3)ccc2c(=O)n1-c1ccc(F)cc1)NS(=O)(=O)C1CC1 [Example 8.6, N-(cyclopropylsulfonyl)-5-(6-(5-(4-fluorobenzyl)-1,2,4-oxadiazol-3-yl)-2-(4-fluorophenyl)-1-oxo-1,2-dihydroisoquinolin-3-yl)pentanamide]
14.8	C[C@@H](NC(=O)c1ccc2c(=O)n(-c3ccc(F)cc3)c(CCCCC(=O)NS(=O)(=O)C3CC3)cc2c1)c1ccc(F)cc1 [Example 8.2, (R)-3-(5-(cyclopropanesulfonamido)-5-oxopentyl)-2-(4-fluorophenyl)-N-(1-(4-fluorophenyl)ethyl)-1-oxo-1,2-dihydroisoquinoline-6-carboxamide]
14.8	O=C(O)CCCCc1cc2cc(-c3noc(-c4ccc(C(F)(F)F)cc4)n3)ccc2c(=O)n1-c1ccc(F)cc1 [Example 7.4, 5-(2-(4-fluorophenyl)-1-oxo-6-(5-(4-(trifluoromethyl)phenyl)-1,2,4-oxadiazol-3-yl)-1,2-dihydroisoquinolin-3-yl)pentanoic acid]
17.2	O=C(CCCCc1cc2cc(-c3cc(Cc4ccc(F)cc4)on3)ccc2c(=O)n1-c1ccc(F)cc1)NS(=O)(=O)C1CC1 [Example 8.5, N-(cyclopropylsulfonyl)-5-(6-(5-(4-fluorobenzyl)isoxazol-3-yl)-2-(4-fluorophenyl)-1-oxo-1,2-dihydroisoquinolin-3-yl)pentanamide]
12.7	CC(c1ccc(F)cc1)c1nc(-c2ccc3c(=O)n(-c4ccc(F)cc4)c(CCCCC(=O)O)cc3c2)no1 (stereo not shown) [Example 7.3, 5-(2-(4-fluorophenyl)-6-(5-(1-(4-fluorophenyl)ethyl)-1,2,4-oxadiazol-3-yl)-1-oxo-1,2-dihydroisoquinolin-3-yl)pentanoic acid]
37.2	C[C@@H]1CN(c2ccccc2)CCN1C(=O)c1ccc2c(=O)n(-c3ccc(F)cc3)c(CCCCC(=O)NS(=O)(=O)C3CC3)cc2c1 [Example 8.4, (R)-N-(cyclopropylsulfonyl)-5-(2-(4-fluorophenyl)-6-(2-methyl-4-phenylpiperazine-1-carbonyl)-1-oxo-1,2-dihydroisoquinolin-3-yl)pentanamide]
17	C[C@@H]1CN(c2ccc(F)cc2)CCN1C(=O)c1ccc2c(=O)n(-c3ccc(F)cc3)c(CCCCC(=O)NS(=O)(=O)C3CC3)cc2c1 [Example 8.3, (R)-N-(cyclopropylsulfonyl)-5-(2-(4-fluorophenyl)-6-(4-(4-fluorophenyl)-2-methylpiperazine-1-carbonyl)-1-oxo-1,2-dihydroisoquinolin-3-yl)pentanamide]
